Results taken from patent US6376747B1, “Plant-derived map kinase kinase” (Her Majesty the Queen in right of Canada as represented by …, priority 1999, dated 2002).
Where two headings read alike, the source gives them in different places.

Legend:
[1] = test system: tMEK2^MUT-induced gene activation (PR1b1, PR3, Twi1, ER5); assay: Effect of MAPK inhibitors on tMEK2^MUT-induced gene activation in tomato protoplasts; assay type: cell-based, Tomato (Lycopersicon esculentum cv Bonny Best); conditions: for effect on tMEK2^MUT-activated PR3 and ER5 genes / effect on tMEK2^MUT-activated PRlbl or Twi1 genes: 350 nM for SB 202190, 1 μM for SB 203580 in protoplast incubation buffer (FIG. 6); for effect on all four genes previously activated by tMEK2^MUT: inhibitor at 1 μM in protoplast incubation buffer, genes PR1b1, PR3, Twi1, ER5 (FIG. 6)
Procedure: Kinase inhibitors at the concentration of 1 μM for staurosporine, 350 nM for SB 202190 and 1 μM for PD 98059, SB 203580 and SB 202474 were included in the proteoplast incubation buffer.
The protoplasts were resuspended in electroporation buffer containing 150 mM MgCl2 and 0.4 M mannitol at a density of 1×10^6 protoplasts/ml and co-electroporated with […] of pTZ19 carrying tMEK2 gene and pJD300 carrying luciferase gene in a total volume of 500 μl as described by Leckie (1994) with some modifications. Electroporation was performed at 200 volts and 100 μF (Gene Pulser II, Bio-Rad). Protoplasts were then allowed to recover on ice in the dark for 10 min followed by centrifugation at 500 g for 5 min. After removal of the supernatant, the protoplast pellet, with about 500 μl of buffer, was supplemented with another 500 μl protoplast incubation buffer. Protoplasts were incubated in the dark at 30° C. for 24 hr.
(§1) Kinase inhibitors (CalBiochem, San Diego, Calif.) at the concentration of 1 μM for staurosporine, 350 nM for SB 202190 and 1 μM for PD 98059, SB 203580 and SB 202474, when applicable, were included in the protoplast incubation buffer.
RT-PCR was as described above. The number of PCR cycles corresponded to the high end of the range in which a linear increase in products could be detected (generally 14-16 cycles were used). Reaction products were separated on 1.0% agarose gels. Southern blot analysis was used to estimate levels of specific amplified products. Equivalence of cDNA in different samples was verified using PCR reactions for actin. Primers were designed for PCR according to published sequences for tomato PR-lbl, chitinase, Twit, ER5 and actin (Tornero et al., 1997; Danhash et al., 1993; O'Donnell et al., 1998; Zegzoutti et al. 1997; Moniz de Sa and Drouin, 1996).
To study divergence of the signal pathways downstream of tMEK2 the influence of […] expression in tomato protoplasts was examined in the presence of a broad protein kinase inhibitor (staurosporine) and inhibitors specific to the p38 class MAPK (SB 202190 or SB 203580). Staurosporine inhibited all four genes that were previously activated by tMEK2^MUT; whereas, inhibitors of p38 class MAPK inhibited the PR3 and ER5 genes but not PRlbl or Twi1. […] The results, shown in FIG. 6, are consistent with the divergence of signal pathway downstream of tMEK2. One of these pathways could include a p38 class MAPK.

[2] = test system: tomato leaf mesophyll protoplasts; assay: Protoplast viability in the presence of kinase inhibitors; assay type: cell-based, Tomato (Lycopersicon esculentum cv Bonny Best); conditions: 1 μM staurosporine, 350 nM SB 202190, 1 μM PD 98059, SB 203580 and SB 202474; data not shown
Procedure: as §1

myelin basic protein [3] = test system: myelin basic protein
myelin basic protein [4] = target: myelin basic protein; remark: listed apart in the source
[5] = test system: PR1b1, PR3 (chitinase) and Twi1 genes; assay: Tomato protoplast transient expression, quantitative RT-PCR of pathogenesis-related genes; assay type: cell-based, Tomato (Lycopersicon esculentum cv Bonny Best); conditions: transient expression driven by tCUPΔ promoter after electroporation, 24 hr incubation, quantitative RT-PCR (FIG. 4)
Text: To examine the effects of tMEK2^WT and tMEK2^MUT on the activation of pathogenesis-related (PR) or other pathogen-inducible genes a tomato protoplast transient expression system was developed. Chimeric genes, tCUPΔ-tMEK2^WT-nos and tCUPΔ-tMEK2^MUT-nos, were constructed using the storing constitutive promoter, tCUPΔ, which was derived from the tCUP promoter as by modification of the mRNA leader sequence described above. After electroporation, transient expression of potential target genes was detected by quantitative RT-PCR. The genes analysed included PRlbl, which is activated by tomato mosaic virus (Tornero et al., 1997); PR3 (chitinase), which is activated during an incompatible C. fulvam-tomato interaction (Danhash et al., 1993); and Twi, which is a pathogen- and would-inducible gene recently identified in tomato (O'Donnell, et al., 1998).
Tomato (Lycopersicon esculentum cv Bonny Best) were grown at 80% relative humidity in peat soil in growth cabinets programmed for 16 hr days at 25° C. and 8 hr nights at 22° C. Light intensity was controlled at 25 pE m-2 S-1 emitted from “cool white” fluorescent lamps (Philip Canada, Scarborough, Ontario). […]
(§2) RT-PCR was as described above. The number of PCR cycles corresponded to the high end of the range in which a linear increase in products could be detected (generally 14-16 cycles were used). […]

ER5 gene = assay: Tomato protoplast transient expression, quantitative RT-PCR of wound-inducible gene ER5; assay type: cell-based, Tomato (Lycopersicon esculentum cv Bonny Best); conditions: transient expression in tomato protoplasts, quantitative RT-PCR (FIG. 5b)
Procedure: Tomato (Lycopersicon esculentum cv Bonny Best) were grown at 80% relative humidity in peat soil in growth cabinets programmed for 16 hr days at 25° C. and 8 hr nights at 22° C. Light intensity was controlled at 25 pE m-2 S-1 emitted from “cool white” fluorescent lamps (Philip Canada, Scarborough, Ontario). The youngest fully expanded leaves were surface sterilized for 5 min in 4% sodium hypochlorite and rinsed three times with sterile water. The lower epidermis was gently rubbed with Carborundum, rinsed with sterile water and leaf fragments of ca. 1 cm^2 were floated with exposed surface facing an enzyme solution containing 0.15% macerozyme R10 (Yakult Honsha Co., Japan), 0.3% Cellulase “Onozuka” Rio (Yakult Honsha Co., Japan), 0.4 M sucrose in K3 medium (Maliga et. al., 1973). After overnight incubation at 30° C., the enzyme-protoplast mixture was filtered through a 100 μm nylon sieve, centrifuged at 500 g for 5 min. and floated protoplasts were collected and washed twice with W5 medium (Maliga et.al., 1973). The protoplasts were kept on ice in W5 medium for 2 hr before transformation. […]
as §2

C[S+]([O-])c1ccc(-c2nc(-c3ccc(F)cc3)c(-c3ccncc3)[nH]2)cc1 (centres unmarked) [SB 203580]
effect on tMEK2^MUT-activated PR3 and ER5 genes [1]: inhibited | effect on tMEK2^MUT-activated PRlbl or Twi1 genes [1]: not | change of protoplast viability [2]: did not change

COc1cccc(-c2cc(=O)c3ccccc3o2)c1N [PD 98059]
effect on all four genes previously activated by tMEK2^MUT [1]: no effects

CCc1nc(-c2ccc(OC)cc2)[nH]c1-c1ccncc1 [SB202474]
effect on all four genes previously activated by tMEK2^MUT [1]: no effects | change of protoplast viability [2]: did not change

Oc1ccc(-c2nc(-c3ccc(F)cc3)c(-c3ccncc3)[nH]2)cc1 [SB 202190]
effect on tMEK2^MUT-activated PR3 and ER5 genes [1]: inhibited | effect on tMEK2^MUT-activated PRlbl or Twi1 genes [1]: not

GST-tMEK2^MUT (recombinant glutathione-S-transferase fusion of tMEK2 with serine221 and threonine226 replaced with aspartic acid)
substrate phosphorylation (in vitro kinase assay, SDS-PAGE, autoradiography) (myelin basic protein [3]): Both the wild type and mutant forms of the tMEK2 enzyme phosphorylated myelin basic protein (MPB) in vitro

CN[C@@H]1C[C@H]2O[C@@](C)([C@@H]1OC)n1c3ccccc3c3c4c(c5c6ccccc6n2c5c31)C(=O)NC4 [Staurosporine, staurosporine]
effect on all four genes previously activated by tMEK2^MUT [1]: inhibited | change of protoplast viability [2]: did not change

B1: GST-tMEK2^WT (recombinant glutathione-S-transferase fusion of wild type tomato cv. Bonny Best MAP kinase kinase tMEK2) (protein)
chain: MKKGSFAPNLKLSLPPPDEVALSKFLTESGTFKDGDLLVNRDGVRIVSQSEVAAPSVIQPSDNQLCLADFEAVKVIGKGNGGIVRLVQHKWTGQFFALKVIQMNIDESMRKHIAQELRINQSSQCPYVVICYQSFFDNGAISLILEYMDGGSLADFLKKVKTIPERFLAVICKQVLKGLWYLHHEKHIIHRDLKPSNLLINHRGDVKITDFGVSAVLASTSGLANTFVGTYNYMSPERISGGAYDYKSDIWSLGLVLLECATGHFPYKPPEGDEGWVNVYELMETIVDQPEPCAPPDQFSPQFCSFISACVQKHQKDRLSANDLMSHPFITMYDDQDIDLGSYFTSAGPPLATLTEL
substrate phosphorylation (in vitro kinase assay, SDS-PAGE, autoradiography) (myelin basic protein [4]): Both the wild type and mutant forms of the tMEK2 enzyme phosphorylated myelin basic protein (MPB) in vitro

B2: tMEK2^WT: wild type MAPKK gene tMEK2 isolated from tomato cv. Bonny Best, expressed from tCUPΔ promoter (protein)
chain: MKKGSFAPNLKLSLPPPDEVALSKFLTESGTFKDGDLLVNRDGVRIVSQSEVAAPSVIQPSDNQLCLADFEAVKVIGKGNGGIVRLVQHKWTGQFFALKVIQMNIDESMRKHIAQELRINQSSQCPYVVICYQSFFDNGAISLILEYMDGGSLADFLKKVKTIPERFLAVICKQVLKGLWYLHHEKHIIHRDLKPSNLLINHRGDVKITDFGVSAVLASTSGLANTFVGTYNYMSPERISGGAYDYKSDIWSLGLVLLECATGHFPYKPPEGDEGWVNVYELMETIVDQPEPCAPPDQFSPQFCSFISACVQKHQKDRLSANDLMSHPFITMYDDQDIDLGSYFTSAGPPLATLTEL
modifications: left off: a dimerising Fc or GST
activation of tomato PRlbl, chitinase and Twil genes [5]: no effect | activation of ER5 gene (ER5 gene): did not
